From BindingDB's records for doi:10.3109/14756360903049042 (Medical University of Bialystok, 2010) come the findings set out here.

The target of experiment [1] is Plasminogen (Homo sapiens, UniProt P00747). The experiment can be described thus: Amidolytic Activity Assay (Plasmin). Conditions: pH 7.4. As to the method: Determination of amidolytic activity was performed as described previously [Okada et al., Chem. Pharm. Bull., 36:1289-1297]. Detailed description of the method is given below. To 0.2 cm3 of examined compound (1−11; 0.15 M NaCl as control), buffer, and 0.1 cm^3 of enzyme solution was added: tris buffer−0.5 cm^3 (pH = 7.4); enzyme: plasmin (0.4 unit/cm^3); synthetic substrate: S-2251 (0.2 cm^3, 3 mM/dm^3).

The target in experiment [2] is Serine protease 1 (Homo sapiens, UniProt P07477). The experiment can be described thus: Amidolytic Activity Assay (Trypsin). Conditions: pH 7.5. As to the method:
Determination of amidolytic activity was performed as described previously [Okada et al., Chem. Pharm. Bull., 36:1289-1297]. Detailed description of the method is given below. […]

Broadly, the Ki is the equilibrium dissociation constant of an inhibitor or competing ligand from its target. A lower Ki goes with tighter binding.

Sequence of Serine protease 1 (P07477 whole entry): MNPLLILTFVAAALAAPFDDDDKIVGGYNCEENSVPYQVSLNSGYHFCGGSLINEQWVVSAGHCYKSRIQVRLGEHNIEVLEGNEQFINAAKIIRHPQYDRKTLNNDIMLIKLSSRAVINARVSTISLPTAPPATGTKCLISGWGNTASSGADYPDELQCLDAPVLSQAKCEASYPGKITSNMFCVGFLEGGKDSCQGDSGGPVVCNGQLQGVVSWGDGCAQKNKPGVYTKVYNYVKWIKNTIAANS
Sequence of Plasminogen (P00747 97-580 limits assumed): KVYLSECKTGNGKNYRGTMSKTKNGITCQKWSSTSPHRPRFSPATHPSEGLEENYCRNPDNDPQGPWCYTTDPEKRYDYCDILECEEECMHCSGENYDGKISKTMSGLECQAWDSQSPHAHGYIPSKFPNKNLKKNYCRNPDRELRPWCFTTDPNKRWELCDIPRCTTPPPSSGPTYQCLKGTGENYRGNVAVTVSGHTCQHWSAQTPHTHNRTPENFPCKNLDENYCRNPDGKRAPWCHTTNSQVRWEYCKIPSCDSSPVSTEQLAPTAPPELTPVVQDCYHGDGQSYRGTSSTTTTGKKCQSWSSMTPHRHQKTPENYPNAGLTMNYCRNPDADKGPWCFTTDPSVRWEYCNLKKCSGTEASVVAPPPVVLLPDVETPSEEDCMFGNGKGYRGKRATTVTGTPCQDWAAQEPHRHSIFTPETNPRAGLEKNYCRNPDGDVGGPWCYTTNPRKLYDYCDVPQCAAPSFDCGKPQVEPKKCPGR
Sequence of Plasminogen (P00747 581-810 limits assumed): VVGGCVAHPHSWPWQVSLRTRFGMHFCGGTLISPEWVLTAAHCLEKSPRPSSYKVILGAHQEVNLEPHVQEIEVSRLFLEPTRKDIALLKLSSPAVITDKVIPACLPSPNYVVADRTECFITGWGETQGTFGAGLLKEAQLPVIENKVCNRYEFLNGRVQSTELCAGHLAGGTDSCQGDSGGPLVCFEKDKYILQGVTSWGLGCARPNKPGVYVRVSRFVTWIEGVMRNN

On to `C[C@H](NC(=O)[C@H](N)CO)C(=O)N[C@@H](CCCNC(=N)N)C(=O)NCCCO` [H-D-Ser-Ala-Arg-NH-(CH2)3-OH (10)], for which the results for the Ki in experiment [1] and in experiment [2] were 1090 µM and 15 µM, respectively. Taken in the same sequence, the figures for `C[C@H](NC(=O)[C@H](N)CO)C(=O)N[C@@H](CCCNC(=N)N)C(=O)NCCCCCCCCCN` [H-D-Ser-Ala-Arg-NH-(CH2)9-NH2 (8)] were 90 µM and 5 µM. Take `C[C@H](NC(=O)[C@H](N)CO)C(=O)N[C@@H](CCCNC(=N)N)C(=O)NCCCCO` [H-D-Ser-Ala-Arg-NH-(CH2)4-OH (11)]: the Ki was determined as 545 µM in experiment [1] and 10 µM in experiment [2]. For `C[C@H](NC(=O)[C@H](N)CO)C(=O)N[C@@H](CCCNC(=N)N)C(=O)NCCO` [H-D-Ser-Ala-Arg-NH-(CH2)2-OH (9)], affinity in experiment [1] was put at a Ki of 727 µM. In the case of `C[C@H](NC(=O)[C@H](N)CO)C(=O)N[C@@H](CCCNC(=N)N)C(=O)NCCCCCCCN` [H-D-Ser-Ala-Arg-NH-(CH2)7-NH2 (6)], the Ki in experiment [1] came out at 364 µM; in experiment [2], 30 µM. As for `C[C@H](NC(=O)[C@H](N)CO)C(=O)N[C@@H](CCCNC(=N)N)C(=O)NCCCCCN` [H-D-Ser-Ala-Arg-NH-(CH2)5-NH2 (4)], the Ki in experiment [1] came out at 37 µM. In the case of `C[C@H](NC(=O)[C@H](N)CO)C(=O)N[C@@H](CCCNC(=N)N)C(=O)NCCCCCCN` [H-D-Ser-Ala-Arg-NH-(CH2)6-NH2 (5)], the Ki amounted to 181 µM in experiment [1] and 2.5 µM in experiment [2]. Regarding `C[C@H](NC(=O)[C@H](N)CO)C(=O)N[C@@H](CCCNC(=N)N)C(=O)NCCCCCCCCN` [H-D-Ser-Ala-Arg-NH-(CH2)8-NH2 (7)], the Ki in experiment [2] turned out to be 10 µM.
